Results on ten compounds are retold here after US20250122191A1, “COMPOUNDS AS BCL-2 INHIBITORS” (Fochon Biosciences, Ltd, priority 2021, published 2025).

Assay type in all cases: cell-based
In one assay the test system is Toledo cells. The experiment in a line: Cell proliferation assay (MTS), Toledo cells. The settings on record: Homo sapiens, 72 h. A digest of the protocol: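 Toledo cells (RPMI-1640, 10% FBS) seeded at 30000 cells/well, rested 4 h, then exposed 72 h at 37 °C, 5% CO2 to compound at nine final concentrations, 1.5–10000 nM. Viability by MTS (2 h), absorbance at 490 nm. IC50 from the concentration-response.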

Another assay deals with RS4;11-BCL-2 F104L cells. The experiment in a line: Cell proliferation assay (MTS), RS4;11-BCL-2 F104L engineered cells. The settings on record: Homo sapiens, 120 h, read-out: RS4, 11 BCL2-F104L IC50. The source says: MTS testing kit was purchased from Promega (Madison, WI, USA). The RPMI-1640, Fetal bovine serum and Penicillin-Streptomycin were purchased from BI (Biological Industries, Beit Haemek, Israel). Puromycin was purchased from Beyotime (shanghai, China). Dimethyl sulfoxide (DMSO) was purchased from Sigma (St. Louis., MO, USA). RS4;11-BCL-2 G101V (Cobioer Lot. #: CBD2021063013P4), RS4;11-BCL-2 D103E (Cobioer Lot. #: CBD2021063013P4), RS4;11-BCL-2 D103Y (Cobioer Lot. #: CBD2022012101P4) and RS4;11-BCL-2 F104L (Cobioer Lot. #: CBD2021063014P4) cells were cultured in RPMI1640 supplemented with 1 ug/mL puromycin, 100 U/mL Penicillin-Streptomycin and 10% FBS.
To investigate whether a compound is able to inhibit the activity of BCL-2 mutation in cells, a mechanism-based assay using engineered cell lines stably overexpressing BCL-2 mutation (RS4;11-BCL-2 G101V, RS4;11-BCL-2 D103E, RS4;11-BCL-2 D103Y, and RS4;11-BCL-2 F104L) was developed. In this assay, the inhibition of BCL-2 mutation was reflected by the inhibition of cell proliferation of engineered RS4;11 cells. Cells were plated into 96-well plates at optimized cell density (RS4;11-BCL-2 G101V: 5000 cells/well; RS4;11-BCL-2 D103E: 7500 cells/well; RS4;11-BCL-2 D103Y: 7500 cells/well; RS4;11-BCL-2 F104L: 5000 cells/well). Plates were incubated at 37° C., with 5% CO2 for 4 h (RS4;11-BCL-2 G101V, RS4;11-BCL-2 F104L) and 24 h (RS4;11-BCL-2 D103E, RS4;11-BCL-2 D103Y), respectively. Compounds were serially diluted and added to the plates with the final concentrations of 10000, 3333.3, 1111.1, 370.4, 123.5, 41.2, 13.7, 4.6 and 1.5 nM. Plates were incubated at 37° C., with 5% CO2 for 120 h (RS4; 11-BCL-2 G101V, RS4; 11-BCL-2 F104L) and 72 h (RS4;11-BCL-2 D103E, RS4;11-BCL-2 D103Y), respectively. 20 μl MTS was added into each well and the plates were incubated at 37° C., with 5% CO2 exactly for 2 h. The absorbance was measured by a microplate reader at 490 nm. IC50 values were calculated using GraphPad Prism 8.0 software.

The test system of a further assay is RS4;11-BCL-2 G101V cells. In words: Cell proliferation assay (MTS), RS4;11-BCL-2 G101V engineered cells. The settings on record: Homo sapiens, 120 h, read-out: RS4, 11 BCL2-G101V IC50. A digest of the protocol:
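RS4;11 cells stably overexpressing mutant BCL-2 were seeded and pre-incubated 4 h (G101V, F104L) or 24 h (D103E, D103Y), then exposed to compound at 1.5–10000 nM for 120 h (G101V, F104L) or 72 h (D103E, D103Y) at 37 °C. Viability was read by MTS absorbance at 490 nm after 2 h; IC50 fitted.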

Consider `CCOc1nc2[nH]cc(F)c2cc1Oc1cc(N2CCC3(CC2)CC(N2CCN(Cc4ccc(C5CC5)c(OC)c4)C[C@H]2c2ccccc2C(C)C)C3)ccc1C(=O)NS(=O)(=O)c1cnc(NC[C@H]2CC[C@](C)(O)CC2)c([N+](=O)[O-])c1` [Example 6, 4-(2-((R)-4-(4-cyclopropyl-3-methoxybenzyl)-2-(2-isopropylphenyl)piperazin-1-yl)-7-azaspiro[3.5]nonan-7-yl)-2-((6-ethoxy-3-fluoro-1H-pyrrolo[2,3-b]pyridin-5-yl)oxy)-N-((6-((((1r,4r)-4-hydroxy-4-methylcyclohexyl)methyl)amino)-5-nitropyridin-3-yl)sulfonyl)benzamide], for which the IC50 with Toledo cells, in the assay with RS4;11-BCL-2 F104L cells and with RS4;11-BCL-2 G101V cells was 1 nM throughout.
Take `CCOc1nc2[nH]cc(F)c2cc1Oc1cc(N2CCC3(CC2)CC(N2CCN(Cc4ccc(OC)c5oc(C)cc45)C[C@H]2c2ccccc2C(C)C)C3)ccc1C(=O)NS(=O)(=O)c1cnc(NC[C@H]2CC[C@](C)(O)CC2)c([N+](=O)[O-])c1` [Example 14, 2-((6-ethoxy-3-fluoro-1H-pyrrolo[2,3-b]pyridin-5-yl)oxy)-N-((6-((((1r,4r)-4-hydroxy-4-methylcyclohexyl)methyl)amino)-5-nitropyridin-3-yl)sulfonyl)-4-(2-((R)-2-(2-isopropylphenyl)-4-((7-methoxy-2-methylbenzofuran-4-yl)methyl)piperazin-1-yl)-7-azaspiro[3.5]nonan-7-yl)benzamide]: the IC50 in the assay on Toledo cells, in the assay with RS4;11-BCL-2 F104L cells and with RS4;11-BCL-2 G101V cells was 1 nM throughout.
For the compound `COc1ccc(CN2CCN(C3CC4(CCN(c5ccc(C(=O)NS(=O)(=O)c6cnc(NC[C@H]7CC[C@](C)(O)CC7)c([N+](=O)[O-])c6)c(Oc6cnc7[nH]ccc7c6)c5)CC4)C3)[C@H](c3ccccc3C(C)C)C2)c2cc(C)oc12` [Example 66, 2-((1H-pyrrolo[2,3-b]pyridin-5-yl)oxy)-N-((6-((((1r,4r)-4-hydroxy-4-methylcyclohexyl)methyl)amino)-5-nitropyridin-3-yl)sulfonyl)-4-(2-((R)-2-(2-isopropylphenyl)-4-((7-methoxy-2-methylbenzofuran-4-yl)methyl)piperazin-1-yl)-7-azaspiro[3.5]nonan-7-yl)benzamide], the IC50 in the assay on RS4;11-BCL-2 F104L cells and in the assay on RS4;11-BCL-2 G101V cells was 1 nM in each case.
With `COc1nc2[nH]cc(F)c2cc1Oc1cc(N2CCC3(CC2)CC(N2CCN(Cc4ccnc(OC(F)F)c4)C[C@H]2c2ccccc2C(C)C)C3)ccc1C(=O)NS(=O)(=O)c1cnc(NC[C@H]2CC[C@](C)(O)CC2)c([N+](=O)[O-])c1` [Example 67, 4-(2-((R)-4-((2-(difluoromethoxy)pyridin-4-yl)methyl)-2-(2-isopropylphenyl)piperazin-1-yl)-7-azaspiro[3.5]nonan-7-yl)-2-((3-fluoro-6-methoxy-1H-pyrrolo[2,3-b]pyridin-5-yl)oxy)-N-((6-((((1r,4r)-4-hydroxy-4-methylcyclohexyl)methyl)amino)-5-nitropyridin-3-yl)sulfonyl)benzamide], the IC50 in the assay on RS4;11-BCL-2 F104L cells and in the assay on RS4;11-BCL-2 G101V cells was 1 nM throughout.
Consider `COc1nc2[nH]cc(F)c2cc1Oc1cc(N2CCC3(CC2)CC(N2CCOC[C@H]2c2ccccc2C(C)C)C3)ccc1C(=O)NS(=O)(=O)c1cnc(NC[C@H]2CC[C@](C)(O)CC2)c([N+](=O)[O-])c1` [Example 87, 2-((3-fluoro-6-methoxy-1H-pyrrolo[2,3-b]pyridin-5-yl)oxy)-N-((6-((((1r,4r)-4-hydroxy-4-methylcyclohexyl)methyl)amino)-5-nitropyridin-3-yl)sulfonyl)-4-(2-((R)-3-(2-isopropylphenyl)morpholino)-7-azaspiro[3.5]nonan-7-yl)benzamide], for which the IC50 in the assay on Toledo cells, with RS4;11-BCL-2 F104L cells and in the assay with RS4;11-BCL-2 G101V cells was 1 nM in each case.
Take `COc1nc2[nH]cc(F)c2cc1Oc1cc(N2CCC3(CC2)CC(N2CCC[C@H]2c2ccccc2C(C)C)C3)ccc1C(=O)NS(=O)(=O)c1cnc(NC[C@H]2CC[C@](C)(O)CC2)c([N+](=O)[O-])c1` [Example 89, 2-((3-fluoro-6-methoxy-1H-pyrrolo[2,3-b]pyridin-5-yl)oxy)-N-((6-((((1r,4r)-4-hydroxy-4-methylcyclohexyl)methyl)amino)-5-nitropyridin-3-yl)sulfonyl)-4-(2-((S)-2-(2-isopropylphenyl)pyrrolidin-1-yl)-7-azaspiro[3.5]nonan-7-yl)benzamide]: the IC50 in the assay with RS4;11-BCL-2 F104L cells and with RS4;11-BCL-2 G101V cells was 1 nM throughout.
For `COc1ccc(CN2CCN(C3CC4(CCN(c5ccc(C(=O)NS(=O)(=O)c6cnc(NC[C@H]7CC[C@](C)(O)CC7)c([N+](=O)[O-])c6)c(Oc6cc7c(F)c[nH]c7nc6OC)c5)CC4)C3)[C@H](c3ccccc3C(C)C)C2)cc1F` [Example 97, 4-(2-((R)-4-(3-fluoro-4-methoxybenzyl)-2-(2-isopropylphenyl)piperazin-1-yl)-7-azaspiro[3.5]nonan-7-yl)-2-((3-fluoro-6-methoxy-1H-pyrrolo[2,3-b]pyridin-5-yl)oxy)-N-((6-((((1r,4r)-4-hydroxy-4-methylcyclohexyl)methyl)amino)-5-nitropyridin-3-yl)sulfonyl)benzamide], the IC50 with Toledo cells and in the assay with RS4;11-BCL-2 F104L cells was 1 nM in each case.
On to `COc1cc(CN2CCN(C3CC4(CCN(c5ccc(C(=O)NS(=O)(=O)c6cnc(NC[C@H]7CC[C@](C)(O)CC7)c([N+](=O)[O-])c6)c(Oc6cc7c(F)c[nH]c7nc6OC)c5)CC4)C3)[C@H](c3ccccc3C(C)C)C2)cc2c1OCCC2` [Example 103, 2-((3-fluoro-6-methoxy-1H-pyrrolo[2,3-b]pyridin-5-yl)oxy)-N-((6-((((1r,4r)-4-hydroxy-4-methylcyclohexyl)methyl)amino)-5-nitropyridin-3-yl)sulfonyl)-4-(2-((R)-2-(2-isopropylphenyl)-4-((8-methoxychroman-6-yl)methyl)piperazin-1-yl)-7-azaspiro[3.5]nonan-7-yl)benzamide], for which the IC50 in the assay with Toledo cells and with RS4;11-BCL-2 F104L cells was 1 nM in each case.
For `COc1nc2[nH]cc(F)c2cc1Oc1cc(N2CCC3(CC2)CC(N2CCN(Cc4ccc(S(C)(=N)=O)cc4)C[C@H]2c2ccccc2C(C)C)C3)ccc1C(=O)NS(=O)(=O)c1cnc(NC[C@H]2CC[C@](C)(O)CC2)c([N+](=O)[O-])c1` (stereo partly drawn) [Example 336, 2-((3-fluoro-6-methoxy-1H-pyrrolo[2,3-b]pyridin-5-yl)oxy)-N-((6-((((1r,4r)-4-hydroxy-4-methylcyclohexyl)methyl)amino)-5-nitropyridin-3-yl)sulfonyl)-4-(2-((2R)-2-(2-isopropylphenyl)-4-(4-(S-methylsulfonimidoyl)benzyl)piperazin-1-yl)-7-azaspiro[3.5]nonan-7-yl)benzamide], the IC50 in the assay with Toledo cells and in the assay with RS4;11-BCL-2 F104L cells was 1 nM throughout.
For `COc1nc2[nH]cc(F)c2cc1Oc1cc(N2CCC3(CC2)CC(N2CCN(Cc4ccnc(Cl)c4)C[C@H]2c2ccccc2C(C)C)C3)ccc1C(=O)NS(=O)(=O)c1cnc(NC[C@H]2CC[C@](C)(O)CC2)c([N+](=O)[O-])c1` [Example 357, 4-(2-((R)-4-((2-chloropyridin-4-yl)methyl)-2-(2-isopropylphenyl)piperazin-1-yl)-7-azaspiro[3.5]nonan-7-yl)-2-((3-fluoro-6-methoxy-1H-pyrrolo[2,3-b]pyridin-5-yl)oxy)-N-((6-((((1r,4r)-4-hydroxy-4-methylcyclohexyl)methyl)amino)-5-nitropyridin-3-yl)sulfonyl)benzamide], the IC50 was determined as 1 nM with Toledo cells and 3 nM in the assay with RS4;11-BCL-2 F104L cells.
